Source: PMC7154662, “Structural Insight into IAPP‐Derived Amyloid Inhibitors and Their Mechanism of Action” (Angewandte Chemie (International Ed. in English), 2020)
Non-standard residues stand in square brackets, D forms with d. Residues, ends and D or L forms follow the SMILES beside them. NMeI = CC[C@H](C)[C@H](NC)C(=O)O; Sar = CNCC(=O)O

Target: T1, R3-GI (Homo sapiens, UniProt P10997, N54R/S52R/S53R)
T1 construct: linking the two hot segments IAPP(8–18) and IAPP(22–28) in native or N‐methylated form; made in house; host or cells: chemical solid phase peptide synthesis (no expression host)
T1 sequence (P10997 41-61 S52R/S53R/N54R): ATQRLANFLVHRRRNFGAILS
Test: Fluorescence titration: self-association of Fluos-R3-GI with R3-GI
Conditions: Fluos-R3-GI 5 nM titrated with R3-GI; 10 mM sodium phosphate buffer, pH 7.4 (1% HFIP); room temperature, 2-5 min after solution preparation; excitation 492 nm; means (±SEM) from three binding curves; read-out: app. Kd for R3-GI self-association
Text: Figure 1 R3‐GI self‐assembly. […] On the right, the binding curve is shown. The estimated app. […] Data are means (±SEM) from three binding curves. […] Scale bar: 10 μm.
The sampling of the 12 replicas was combined resulting in the ensemble of conformations were the statistical weight of each conformation is obtained by a simple reweighting scheme based on the final metadynamics bias B. The weight of a conformation X is given by w=exp(+B(X)/kBT), consistently with the quasi static behavior at convergence of well- […]
Coarse-grained modelling of R3-GI oligomers
To investigate the interaction of the peptides with each other, over 100 μs of coarse grain simulations were performed using GROMACS. An initial peptide model was created based on a representative structure from the atomistic ensemble. The Martini 2.2 force field was used to describe the peptide interaction together with the standard Martini water model.
Additionally, an elastic network was applied to conserve structural information. […]
Fluorescence spectroscopic titrations
A JASCO FP-6500 fluorescence spectrophotometer was used and titrations were performed as previously described. Briefly, excitation was at 492 nm and fluorescence emission spectra were recorded between 500 and 600 nm. […]
temperature within 2-5 min following solution preparation. The determined app. […]

With `CC[C@H](C)[C@@H](C(=O)N[C@@H](CC(C)C)C(=O)N[C@@H](CO)C(N)=O)N(C)C(=O)[C@H](C)NC(=O)CN(C)C(=O)[C@H](Cc1ccccc1)NC(=O)[C@H](CC(N)=O)NC(=O)[C@H](CCCNC(=N)N)NC(=O)[C@H](CCCNC(=N)N)NC(=O)[C@H](CCCNC(=N)N)NC(=O)[C@H](Cc1c[nH]cn1)NC(=O)[C@@H](NC(=O)[C@H](CC(C)C)NC(=O)[C@H](Cc1ccccc1)NC(=O)[C@H](CC(N)=O)NC(=O)[C@H](C)NC(=O)[C@H](CC(C)C)NC(=O)[C@H](CCCNC(=N)N)NC(=O)[C@H](CCC(N)=O)NC(=O)[C@@H](NC(=O)[C@H](C)N)[C@@H](C)O)C(C)C` [R3-GI] (H-ATQRLANFLVHRRRNF[Sar]A[NMeI]LS-NH2) the Kd was 0.0771 µM.
